Test results taken from patent US20260001914A1, “MACROCYCLIC PEPTIDES TARGETING KRAS” (Merck Sharp & Dohme LLC, priority 2022, published 2026).
pEC50: −log10 of the molar value. *1 amine or outer side, *2 acyl side, *3 side chain or, on linkers, in order; H or OH if unused. Where a SMILES comes first, the peptide text is derived from it. Bridges are numbered along the chain shown (N, C = ends). [ ]: non-standard residue; d: D form. The star is where a group is joined. cBu(1-CO,cis-3-CH2NH) = O=C([C@H]1C[C@@H](CN[*:1])C1)[*:2]; NMeNva(5-imidazol-1-yl) = CN[C@@H](CCCn1ccnc1)C(=O)O; Phe(4-guanidino) = N=C(N)Nc1ccc(C[C@H](N)C(=O)O)cc1; X60 = O=C([C@H](Cc1ccc(NC2=NCCN2)cc1)N[*:1])[*:2]; Ala(pyrimidin-5-yl) = N[C@@H](Cc1cncnc1)C(=O)O; X29 = CC(=O)N(C)CCC[C@@H](C(=O)[*:2])N(C)[*:1]; Gly(N-(CH2)3-guanidino) = N=C(N)NCCCNCC(=O)O; X6 = O=C([C@H](Cc1cnn(C2COC2)c1)N[*:1])[*:2]; X8 = CN([C@@H](Cc1ccc(F)nc1)C(=O)[*:2])[*:1]; NMePhe(3-Me) = CN[C@@H](Cc1cccc(C)c1)C(=O)O; X20 = CN([C@@H](Cc1cnco1)C(=O)[*:2])[*:1]; X25 = O=C([C@H](Cc1ccc(F)nc1)N[*:1])[*:2]; Leu(4,5-dehydro) = C=C(C)C[C@H](N)C(=O)O; Ethyl(2-pyrrolidin-1-yl) = C1CCN(CC*)C1; X30 = O=C([C@H](Cc1ncccc1F)N[*:1])[*:2]; Nle(5,5-F2) = CC(F)(F)CC[C@H](N)C(=O)O; Phe(4-F) = N[C@@H](Cc1ccc(F)cc1)C(=O)O; X2 = O=C([C@H](Cc1ccccc1F)O[*:1])[*:2]; 1Nal = N[C@@H](Cc1cccc2ccccc12)C(=O)O; X35 = CN([C@@H](CCCF)C(=O)[*:2])[*:1]; Phe(2-F) = N[C@@H](Cc1ccccc1F)C(=O)O; Abu(4,4-F2) = N[C@@H](CC(F)F)C(=O)O; NMe3Pal = CN[C@@H](Cc1cccnc1)C(=O)O; X1 = O=C(C12CC(CN[*:1])(C1)C2)[*:2]; Ala(cPr) = N[C@@H](CC1CC1)C(=O)O; NMeF = CN[C@@H](Cc1ccccc1)C(=O)O; PhLac = O=C(O)[C@@H](O)Cc1ccccc1; X4 = O=C([C@H](CCCF)N[*:1])[*:2]; hIle = CC[C@H](C)C[C@H](N)C(=O)O; 3Pal = N[C@@H](Cc1cccnc1)C(=O)O; 4Pal = N[C@@H](Cc1ccncc1)C(=O)O; Ahp(2) = CCCCC[C@H](N)C(=O)O; Ala(CN) = N#CC[C@H](N)C(=O)O; Cba = N[C@@H](CC1CCC1)C(=O)O; hLeu = CC(C)CC[C@H](N)C(=O)O; αMeC = C[C@](N)(CS)C(=O)O; NMeA = CN[C@@H](C)C(=O)O; Nle = CCCC[C@H](N)C(=O)O; Nva = CCC[C@H](N)C(=O)O

biological target: KRAS-G12D protein (Homo sapiens, UniProt P01116, G12D); assay: SOS-mediated nucleotide exchange assay (BODIPY-GDP / Tb-streptavidin TR-FRET); assay type: biochemical
Sequence (P01116 1-188 isoform P01116-2 G12D): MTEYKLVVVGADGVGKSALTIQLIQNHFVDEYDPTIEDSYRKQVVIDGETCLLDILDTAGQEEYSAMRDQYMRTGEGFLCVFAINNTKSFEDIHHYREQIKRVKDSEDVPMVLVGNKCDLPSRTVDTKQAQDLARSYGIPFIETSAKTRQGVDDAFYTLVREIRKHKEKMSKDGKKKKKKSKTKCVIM

Structure (SMILES) | pEC50
CCCC[C@@H]1NC(=O)[C@H](Cc2cccnc2)NC(=O)[C@H](CC#N)NC(=O)[C@H](Cc2ccccc2)OC(=O)C23CC(CNC(=O)[C@H](Cc4cccnc4)N(C)C(=O)[C@H](CCCC)NC(=O)[C@H](Cc4ccccc4F)NC1=O)(C2)C3 [compound 252, cyclo(FLac-AlaCN-3Pal-Nle-Phe2F-Nle-NMe3Pal-amBCP)] (cyclo([3Pal][Nle][Phe(2-F)][Nle][NMe3Pal][X1][PhLac][Ala(CN)])) | 5.43
CCCC[C@@H]1NC(=O)[C@H](Cc2cncnc2)NC(=O)[C@H](CCCn2ccnc2)N(C)C(=O)[C@H](Cc2ccccc2)OC(=O)C23CC(CNC(=O)[C@H](Cc4cccnc4)N(C)C(=O)[C@H](CCCC)NC(=O)[C@H](Cc4ccccc4F)OC1=O)(C2)C3 [compound 246, cyclo(FLac-NMeNvalmid-PyrimAla-Nle-F2FLac-Nle-NMe3Pal-amBCP)] (cyclo([NMe3Pal][X1][PhLac][NMeNva(5-imidazol-1-yl)][Ala(pyrimidin-5-yl)][Nle][X2][Nle])) | 5.94
CC(C)CC[C@@H]1NC(=O)[C@H](Cc2ccccc2F)NC(=O)[C@H](CC2CC2)NC(=O)[C@H](Cc2cncnc2)NC(=O)[C@H](C)N(C)C(=O)[C@H](Cc2ccccc2)OC(=O)C23CC(CNC(=O)[C@H](Cc4ccc(F)nc4)N(C)C1=O)(C2)C3 [compound 339, cyclo(FLac-NMeA-PyrimAla-cPrA-Phe2F-hL-NMe3Pal4F-amBCP)] (cyclo([Ala(cPr)][Phe(2-F)][hLeu][X8][X1][PhLac][NMeA][Ala(pyrimidin-5-yl)])) | 9.00
CCCC[C@@H]1NC(=O)[C@H](Cc2cccnc2)NC(=O)[C@H](CCCF)N(C)C(=O)[C@H](Cc2ccccc2)OC(=O)C23CC(CNC(=O)[C@H](Cc4cccnc4)N(C)C(=O)[C@H](CCCC)NC(=O)[C@H](Cc4ccccc4F)NC1=O)(C2)C3 [compound 239, cyclo(FLac-NMeNvaF-3Pal-Nle-Phe2F-Nle-NMe3Pal-amBCP)] (cyclo([3Pal][Nle][Phe(2-F)][Nle][NMe3Pal][X1][PhLac][X35])) | 6.53
CCCCC[C@@H]1NC(=O)[C@H](Cc2ccc(OC)cc2)NC(=O)[C@H](CC2CCC2)NC(=O)[C@H](Cc2cnn(C)c2)NC(=O)[C@H](CCCNC(=N)N)NC(=O)[C@H](Cc2ccccc2)NC(=O)CSC[C@@](C)(C(N)=O)NC(=O)[C@H](Cc2ccccc2)N(C)C1=O [compound 372, cyclo(F-R-Ala4PyzlMe-cBuA-TyrOMe-Ahp-NMeF-aMeCl-ClAc)] | 7.99
CC(C)CC[C@@H]1NC(=O)[C@H](Cc2ccccc2F)NC(=O)[C@H](CC(F)F)NC(=O)[C@H](Cc2cncnc2)NC(=O)[C@H](C)N(C)C(=O)[C@H](Cc2ccccc2)OC(=O)C23CC(CNC(=O)[C@H](Cc4ccccc4)N(C)C1=O)(C2)C3 [compound 304, cyclo(FLac-NMeA-PyrimAla-AbuF2-Phe2F-hL-NMeF-amBCP)] (cyclo([NMeA][Ala(pyrimidin-5-yl)][Abu(4,4-F2)][Phe(2-F)][hLeu][NMeF][X1][PhLac])) | 7.77
CCC[C@@H]1NC(=O)[C@H](Cc2ccc(OC)cc2)NC(=O)[C@H](C[C@@H](C)CC)NC(=O)[C@H](Cc2ccncc2)NC(=O)[C@H](CCCNC(=N)N)NC(=O)[C@H](Cc2ccc(F)cc2)NC(=O)CSC[C@H](C(=O)O)NC(=O)[C@H](Cc2ccccc2)N(C)C1=O [compound 62, cyclo(Phe4F-R-4Pal-hlle-TyrOMe-Nva-NMeF-dC-ClAc)] ({CH2CO}-[Phe(4-F)]R[4Pal][hIle]Y(Me)[Nva][NMeF][dC]-OH; thioether N-8) | 5.69
CCCC[C@@H]1NC(=O)[C@H](Cc2cccnc2)NC(=O)[C@H](CCCN(C)C(C)=O)N(C)C(=O)[C@H](Cc2ccccc2)OC(=O)C23CC(CNC(=O)[C@H](Cc4cccnc4)N(C)C(=O)[C@H](CCCC)NC(=O)[C@H](Cc4ccccc4F)NC1=O)(C2)C3 [compound 405, cyclo(FLac-NMeOrnAc-3Pal-Nle-Phe2F-Nle-NMe3Pal-amBCP)] (cyclo([3Pal][Nle][Phe(2-F)][Nle][NMe3Pal][X1][PhLac][X29])) | 7.30
CCCCC[C@@H]1NC(=O)[C@H](Cc2ccc(OC)cc2)NC(=O)[C@H](CC2CCC2)NC(=O)[C@H](Cc2cccnc2)NC(=O)[C@H](CCCNC(=N)N)NC(=O)[C@H](Cc2ccccc2)NC(=O)CSC[C@@](C)(C(N)=O)NC(=O)[C@H](Cc2cnco2)N(C)C1=O [compound 379, cyclo(F-R-3Pal-cBuA-TyrOMe-Ahp-NMeAla5Oxa-aMeCl-ClAc)] ({CH2CO}-FR[3Pal][Cba]Y(Me)[Ahp(2)][X20][αMeC]-NH2; thioether N-8) | 7.31
CCCCC[C@@H]1NC(=O)[C@H](Cc2ccc(OC)cc2)NC(=O)[C@H](CC2CCC2)NC(=O)[C@H](Cc2ccc(NC(=N)N)cc2)NC(=O)CN(CCCNC(=N)N)C(=O)[C@H](Cc2ccccc2)NC(=O)CSC[C@@](C)(C(N)=O)NC(=O)[C@H](Cc2ccccc2)N(C)C1=O [compound 361, cyclo(F-NGnG-Phe4Gn-cBuA-TyrOMe-Ahp-NMeF-aMeCl-ClAc)] ({CH2CO}-F[Gly(N-(CH2)3-guanidino)][Phe(4-guanidino)][Cba]Y(Me)[Ahp(2)][NMeF][αMeC]-NH2; thioether N-8) | 7.43
CCCC[C@@H]1NC(=O)[C@H](Cc2cncnc2)NC(=O)[C@H](CCCn2ccnc2)N(C)C(=O)[C@H](Cc2ccccc2)OC(=O)C23CC(CNC(=O)[C@H](Cc4ccccc4)N(C)C(=O)[C@H](CCCC)NC(=O)[C@H](Cc4ccccc4F)NC1=O)(C2)C3 (single isomer, unassigned) [compound 222, cyclo(FLac-NMeNvalmid-PyrimAla-Nle-Phe2F-Nle-NMeF-amBCP)] | 6.31
CCCC[C@@H]1NC(=O)[C@H](Cc2ccc(C(F)(F)F)nc2)NC(=O)[C@H](CCCn2ccnc2)N(C)C(=O)[C@H](Cc2ccccc2)OC(=O)C23CC(CNC(=O)[C@H](Cc4ccccc4)N(C)C(=O)[C@H](CCCC)NC(=O)[C@H](Cc4ccccc4F)NC1=O)(C2)C3 (single isomer, unassigned) [compound 218, cyclo(FLac-NMeNvalmid-4CF33Pal-Nle-Phe2F-Nle-NMeF-amBCP)] | 6.73
CCCC[C@@H]1NC(=O)[C@H](Cc2ccc(NC3=NCCN3)cc2)NC(=O)[C@H](CCCNC(=N)N)NC(=O)[C@H](Cc2ccccc2)NC(=O)[C@H]2C[C@@H](CNC(=O)[C@H](Cc3ccccc3)N(C)C(=O)[C@H](CCCC)NC(=O)[C@H](Cc3ccc(OC)cc3)NC1=O)C2 [compound 207, cyclo(F-R-Phe4Gnc2-Nle-TyrOMe-Nle-NMeF-c3amCblc)] (cyclo(FR[X60][Nle]Y(Me)[Nle][NMeF][cBu(1-CO,cis-3-CH2NH)])) | 7.81
C=C(C)C[C@@H]1NC(=O)[C@H](CC2CC2)NC(=O)[C@H](Cc2cncnc2)NC(=O)[C@H](C)N(C)C(=O)[C@H](Cc2ccccc2)OC(=O)C23CC(CNC(=O)[C@H](Cc4ccccc4)N(C)C(=O)[C@H](CCC(C)C)NC1=O)(C2)C3 [compound 287, cyclo(FLac-NMeA-PyrimAla-cPrA-deHLeu-hL-NMeF-amBCP)] (cyclo([Ala(cPr)][Leu(4,5-dehydro)][hLeu][NMeF][X1][PhLac][NMeA][Ala(pyrimidin-5-yl)])) | 6.14
CCCCC[C@@H]1NC(=O)[C@H](Cc2ccc(OC)cc2)NC(=O)[C@H](CC2CCC2)NC(=O)[C@H](Cc2ccc(OCCN3CCCC3)cc2)NC(=O)[C@H](CCCNC(=N)N)NC(=O)[C@H](Cc2ccccc2)NC(=O)CSC[C@@](C)(C(N)=O)NC(=O)[C@H](Cc2ccccc2)N(C)C1=O [compound 383, cyclo(F-R-TyrOEtPyr-cBuA-TyrOMe-Ahp-NMeF-aMeCl-ClAc)] ({CH2CO}-FRY(Ethyl(2-pyrrolidin-1-yl))[Cba]Y(Me)[Ahp(2)][NMeF][αMeC]-NH2; thioether N-8) | 8.01
CCCC[C@@H]1NC(=O)[C@H](Cc2ccc(NC(=N)N)cc2)NC(=O)[C@H](CCCNC(=N)N)NC(=O)[C@H](Cc2cccc3ccccc23)NC(=O)CNC(=O)[C@@H](C)NC(=O)[C@H](Cc2ccccc2)N(C)C(=O)[C@H](CCCC)NC(=O)[C@H](Cc2ccc(O)cc2)NC1=O [compound 200, cyclo(1Nal-R-Phe4Gn-Nle-Y-Nle-NMeF-dA-G)] (cyclo([1Nal]R[Phe(4-guanidino)][Nle]Y[Nle][NMeF][dA]G)) | 7.28
C[C@H]1C(=O)N[C@@H](Cc2cncnc2)C(=O)N[C@@H](CC2CC2)C(=O)N[C@@H](Cc2ccccc2F)C(=O)NC2CC/C=C\CC[C@@H](C(=O)NCC34CC(C3)(C4)C(=O)O[C@@H](Cc3ccccc3)C(=O)N1C)N(C)C2=O [SEQ ID NO: 182, cyclo(FLac-NMeA-PyrimAla-cPrA-Phe2F-Hag-NMeHag-amBCP)] | 6.65
CCCC[C@@H]1NC(=O)[C@H](Cc2cnn(C3COC3)c2)NC(=O)[C@H](C)N(C)C(=O)[C@H](Cc2ccccc2)OC(=O)C23CC(CNC(=O)[C@H](Cc4ccccc4)N(C)C(=O)[C@H](CCCC)NC(=O)[C@H](Cc4ccccc4F)NC1=O)(C2)C3 [compound 317, cyclo(FLac-NMeA-AlaPyz1Ox-Nle-Phe2F-Nle-NMeF-amBCP)] (cyclo([NMeA][X6][Nle][Phe(2-F)][Nle][NMeF][X1][PhLac])) | 7.64
CCCC[C@@H]1NC(=O)[C@H](Cc2ccccc2F)NC(=O)[C@H](CCCF)NC(=O)[C@H](Cc2cccnc2)NC(=O)[C@H](C)N(C)C(=O)[C@H](Cc2ccccc2)OC(=O)C23CC(CNC(=O)[C@H](Cc4cccnc4)N(C)C1=O)(C2)C3 [compound 120, cyclo(FLac-NMeA-3Pal-NvaF-Phe2F-Nle-NMe3Pal-amBCP)] (cyclo([3Pal][X4][Phe(2-F)][Nle][NMe3Pal][X1][PhLac][NMeA])) | 7.45
Cc1cccc(C[C@H]2C(=O)NCC34CC(C3)(C4)C(=O)O[C@@H](Cc3ccccc3)C(=O)N(C)[C@@H](C)C(=O)N[C@@H](Cc3cncnc3)C(=O)N[C@@H](CC3CC3)C(=O)N[C@@H](Cc3ccccc3F)C(=O)N[C@@H](CCC(C)(F)F)C(=O)N2C)c1 [compound 275, cyclo(FLac-NMeA-PyrimAla-cPrA-Phe2F-Nle3F2-NMePhe3Me-amBCP)] (cyclo([Ala(cPr)][Phe(2-F)][Nle(5,5-F2)][NMePhe(3-Me)][X1][PhLac][NMeA][Ala(pyrimidin-5-yl)])) | 9.00
CCCC[C@@H]1NC(=O)[C@H](Cc2ccc(F)nc2)NC(=O)[C@H](C)N(C)C(=O)[C@H](Cc2ccccc2)OC(=O)C23CC(CNC(=O)[C@H](Cc4ccccc4)N(C)C(=O)[C@H](CCCC)NC(=O)[C@H](Cc4ncccc4F)NC1=O)(C2)C3 [compound 228, cyclo(FLac-NMeA-4F3Pal-Nle-2Pal6F-Nle-NMeF-amBCP)] (cyclo([NMeA][X25][Nle][X30][Nle][NMeF][X1][PhLac])) | 6.06
